Source: article PMC12024814, “Ruthenium(II)–Arene Complexes with a 2,2′-Bipyridine Ligand as Anti-Aβ Agents” (Biomolecules, 2025)

Assays:
Aβ40 [1] = biological target: T1, Aβ40 (Homo sapiens, UniProt P05067); assay: TEM imaging of DLS filtrates; format: biochemical; details: for Ranking TEM: scale 1 to 5 (1 = best, 5 = worst), qualitative
T1 construct: Lyophilized Aβ40 was monomerized following previous procedures; purchased GenScript
Method: Samples for TEM were prepared using the DLS filtrates following their analysis. An aliquot (20 µL) was added directly to a copper-coated formvar/carbon 300 mesh grid with a 63 µm pore size (Ted Pella). After settling for 1 min, the solvent was wicked away, then the grid was stained using 2% uranyl acetate (20 µL). After standing for one minute, the solvent was wicked away, and the grid was washed using dH2O (20 µL), which stayed on the grid for one minute before being wicked away. The grids were stored at room temperature until analysis. TEM images were collected using a high-resolution JEOL JEM 2100F operating at 200 kV.
The final evaluative step in the Aβ40 aggregation assay was imaging the samples using transmission electron microscopy (TEM). The samples used in the preparation of the TEM grids were those of the DLS filtrates, thereby allowing for a direct comparison between experimental methods, ultimately resulting in the same sample being measured by three different instruments. […] In order to determine the impact of each complex on Aβ40, multiple images were taken from each prepared grid (Figure S21), thereby providing an accurate representation of the particles.

Aβ40 [2] = biological target: T1, Aβ40; assay: Thioflavin T (ThT) fluorescence assay of Aβ40 aggregation; format: biochemical; details: for relative aggregation of Aβ40 (ThT fluorescence normalized to Aβ40 alone): equimolar 10 µM complex and Aβ40, 10 µM ThT, final 6 h time point, 37 °C; for Ranking ThT: scale 1 to 5 (1 = best, 5 = worst)
Method: All PBS used in the assay was filtered through a 0.20 μm Titan 3 syringe filter prior to use. The Ru stock solutions initially dissolved about 1.5 mg of each Ru complex in 100 µL DMSO and diluted it to 10 mL with PBS. Thioflavin T (ThT) was prepared in the same manner as the Ru complexes but was filtered prior to use in the assay. Lyophilized Aβ40 was monomerized following previous procedures and stored at −20 °C until use. When removed from the freezer, peptide samples were held on ice for 20 min prior to preparation for the assay. The Aβ40 was mixed with a 15 μL aliquot of DMSO and gently flicked to initiate dissolution. Next, 135 μL PBS was added, and the sample was sonicated until the solution was clear. The concentration of the Aβ40 stock solution was determined using an Implen NanoPhotometer N50 at λ = 280 nm with an extinction coefficient of 1490 M^−1 cm^−1 [27]. Samples were prepared in a 96-well plate by the sequential addition of PBS, Ru, ThT, and Aβ, where the final volume was 150 μL, and the analyte concentrations were 10 μM each. Thioflavin T (ThT) fluorescence was measured using the SpectraMax M3 plate reader with λex = 440 nm and λem = 480 nm. Measurements were taken every 30 min for a total of 6 h, with shaking occurring between each reading.
Each of the prepared Ru complexes was mixed with an equimolar amount of Aβ40 (10 µM), along with ThT (10 µM). Each sample was prepared in triplicate, loaded onto a microwell plate, and incubated at 37 °C with constant agitation to promote aggregation, with fluorescence measurements taken every 30 min for up to 6 h. The resultant fluorescence signals were normalized to the last time point for the samples of Aβ40 alone. After 4 h of incubation, a sharp increase in fluorescence for the peptide alone was observed, signifying that aggregation was occurring (Figure 5). […] Remarkably, the activity shown by RuBA is among the greatest we have measured thus far across a variety of Ru complexes. To confirm this activity, the samples from the ThT assay were subjected to additional analysis, as described below.
Figure 5 ThT fluorescence results following the incubation of equimolar solutions (10 μM) of Aβ40 with the Ru complexes for up to 6 h at 37 °C. The signals were normalized to the positive control of the free peptide in solution at the 6 h time point. The error bars represent the standard deviation observed for each data point for the respective samples.

[3] = Aqueous stability by 1H NMR (DMSO-D6/D2O, 37 °C); format: physicochemical; details: for incubation time at which new 1H NMR signals (ligand exchange) reached maximum intensity: 25% DMSO-D6 in D2O; for ligand exchange in aqueous media (1H NMR): DMSO-D6/D2O, up to 24 h (RuBtB in 75% DMSO)
Method: A common step in the mechanism of action for most metal-based drugs is ligand exchange around the metal center. This promotes the coordination of the complex to the penultimate biological target, eliciting the desired response. […] Therefore, to evaluate the relative stability of the prepared complexes, ^1H NMR studies were performed. Following complete dissolution of the complexes in deuterated DMSO, dilution using D2O to a final DMSO concentration of 25% provided aqueous samples that were measured following prolonged incubation at 37 °C.
For the majority of the complexes, new signals emerged in close proximity to those of the parent complex, even without any incubation. […] A previously study monitoring ligand exchange for RuB in the presence of several proteins saw that neither the arene ring nor the 2,2-bipyridine ligands were lost, but rather the labile monodentate chloride ligand was replaced.

T1 sequence (P05067 672-711 limits assumed): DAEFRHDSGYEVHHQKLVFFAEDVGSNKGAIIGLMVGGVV

Molecule | Ranking TEM (Aβ40 [1]) | relative aggregation of Aβ40 (ThT fluorescence normalized to Aβ40 alone) (Aβ40 [2]) | Ranking ThT (Aβ40 [2]) | incubation time at which new 1H NMR signals (ligand exchange) reached maximum intensity [3] | ligand exchange in aqueous media (1H NMR) [3] | appearance of Aβ40 particles in TEM images (Aβ40 [1]; DLS filtrates after 6 h co-incubation)
Cc1ccc(C(C)C)cc1.F[P-](F)(F)(F)(F)F.[Cl-].[Ru+2].c1ccc(-c2ccccn2)nc1 [RuB, [Ru(η^6-p-cymene)(2,2′-bipyridine)Cl]PF6] | 2 | 9.0% ± 2.3% | 2 | 1 h |  | 
Cc1ccc(C(C)C)cc1.Cc1ccnc(-c2cc(C)ccn2)c1.F[P-](F)(F)(F)(F)F.[Cl-].[Ru+2] [RuBMe, [Ru(η^6-p-cymene)(4,4′-dimethyl-2,2′-bipyridine)Cl]PF6] | 3 |  | 5 | 1 h |  | 
[Ru(η^6-p-cymene)(4,4′-di-tert-butyl-2,2′-bipyridine)Cl]PF6 [RuBtB] | 4 | 14.3% ± 0.6% | 3 |  | no new signals emerged even after 24 h of incubation | 
[Ru(η^6-p-cymene)(4,4′-diamino-2,2′-bipyridine)Cl]PF6 [RuBA] | 1 |  | 1 |  | particularly rapid | most dispersed and least dense particles
[Ru(η^6-p-cymene)(4,4′-dimethoxy-2,2′-bipyridine)Cl]PF6 [RuBMeO] | 5 | 16.1% ± 6.9% | 4 | 1 h |  | 
